{
  "source": "paper PMC10214526",
  "about": "“Semisynthetic LC3 Probes for Autophagy Pathways Reveal a Noncanonical LC3 Interacting Region Motif Crucial for the Enzymatic Activity of Human ATG3” (ACS Central Science, 2023)",
  "key": {"ATG3": {"system": "ATG3", "assay": "Reaction (cross-linking) of Ubl activity-based probes with recombinant ATG3 and variants", "type": "biochemical, human", "conditions": "probe 15 μM; ATG3 wt, C264A and ΔLIR 5 μM; SDS-PAGE (Figure S9)"}, "ATG3 C1": {"system": "ATG3 C1", "assay": "NaCl dependence of cross-linking of probe 2 with ATG3 C1", "type": "biochemical, human", "conditions": "probe 2 15 μM, ATG3 C1 15 μM, phosphate buffer, NaCl 0-500 mM, 37 °C, 30 min; n = 3", "protocol": "Farnung et al. Supplementary Information […]\nelectrostatic representation of ATG3 LIR motif and GABARAP\nFigure S13. Interaction of ATG3 and GABARAP is salt-dependent. a, ColabFold prediction of ATG3-GABARAP complex (in Fig. 1c) shown with its Coulombic potential. Only LIR motif of ATG3 shown for clarity.\nLIRATG3 is mostly negatively charged and binds to a strongly positively charged surface on GABARAP. b, Binding of cyclized LIRATG3 peptide to GABARAP (0.2 μM) in the presence of varying amounts of NaCl. Binding was performed in triplicates and normalized to polarization for 0 mM NaCl. c, Modification of ATG3 C1 with 2 in the presence of increasing concentrations of NaCl (0 -500 mM). Coomassie Blue stained SDS-PAGE gel was analyzed by gel densitometry. d, Quantification of data shown in […]. […]\nFigure S14. […] Lipidation was assessed by immunoblotting against LC3A/B. Lipidation was observed upon re-expression of ATG3 wt but not ATG3 C264A or ΔLIR. As a positive control wild-type HEK293T cells were starved and analyzed in parallel to ATG3 –/– cells. […]\nSDS-PAGE (8-16%, Bio-Rad) and visualized by Coomassie staining. Gel bands were quantified by gel densitometry using ImageLab (Bio-Rad).\nATG3 C1 (15 μM) was mixed with GABARAP methyl fumarate 2 (15 μM) in PBS, and the reaction mixture was incubated at 37 °C for 30 min. […] Gel bands were quantified by gel densitometry using ImageLab […]"}},
  "data": [
    {"substance": "GABARAP(ΔG116)–NHNH methyl-fumarate [compound 2]", "values": [
      {"measurement": "LIR dependence of ATG3 wild-type modification", "setting": "ATG3", "value": "dependent on LIRATG3"},
      {"measurement": "Effect of increasing NaCl on cross-linking with ATG3 C1", "setting": "ATG3 C1", "value": "reduced"}
    ]}
  ]
}
